Measurements taken from patent US20260364079A1 (Principia Biopharma Inc., priority 2022, published 2026).
“And” between values parts separate entries of the source, which are not always exact repeats. Identical values can stand only once.

Assay: phase 1/2 study in relapsed/refractory ITP (NCT03395210), safety
Text: The Safety Population was used for all safety analyses.
Pre-existing conditions that worsened during a study were reported as AEs.
Safety was graded per NCI CTCAE, version 4.0.

[1] = treatment-related TEAE, grade 1
[2] = treatment-related TEAE, grade 2
[3] = treatment-related TEAE, grade 3/4

In the case of CC(C)(C=C(C#N)C(=O)N1CCC[C@@H](n2nc(-c3ccc(Oc4ccccc4)cc3F)c3c(N)ncnc32)C1)N1CCN(C2COC2)CC1 (mixture of isomers) [rilzabrutinib, (R)-2-[3-[4-amino-3-(2-fluoro-4-phenoxy-phenyl)pyrazolo[3,4-d]pyrimidin-1-yl]piperidine-1-carbonyl]-4-methyl-4-[4-(oxetan-3-yl)piperazin-1-yl]pent-2-enenitrile], the Nausea [1] is reported as 16 (27) number of patients (percent), the Peripheral swelling [1] is reported as “— (represents zero events)” and the Petechiae [1] is reported as “— (represents zero events)”. The Pruritus [1] was 1 (2) number of patients (percent), the Purpura [1] was “— (represents zero events)” and the Rash [1] was 1 (2) number of patients (percent). The Thrombocytopena [1] was “— (represents zero events)”, the Upper abdominal pain [1] was 1 (2) number of patients (percent) and the “Upper respiratory tract infection” value [1] was “— (represents zero events)”. The Urinary tract infection [1] was “— (represents zero events)”, the Vomiting [1] was 2 (3) number of patients (percent) and the Abdominal discomfort [2] was “— (represents zero events)”. The Abdominal distension [2] was “— (represents zero events)”, the Abdominal pain [2] was 2 (3) number of patients (percent) and the Abnormal dreams [2] was “— (represents zero events)”. The Akathisia [2] was “— (represents zero events)”, the Alopecia [2] was “— (represents zero events)” and the Anemia [2] was “— (represents zero events)”. The “Any TEAE” value [2] was 15 (25) number of patients (percent), the Arthralgia [2] was “— (represents zero events)” and the Arthropod bite [2] was “— (represents zero events)”. The Back pain [2] was 1 (2) number of patients (percent), the Conjunctival hemorrhage [2] was “— (represents zero events)” and the Contusion [2] was “— (represents zero events)”. The Costochondritis [2] was “— (represents zero events)”, the Cough [2] was “— (represents zero events)” and the Decreased appetite [2] was “— (represents zero events)”. For the same compound, the Defecation urgency [2] was 1 (2) number of patients (percent), the Diarrhea [2] was 3 (5) number of patients (percent) and the Dizziness [2] was “— (represents zero events)”. The Dyspepsia [2] was “— (represents zero events)”, the Dyspnea [2] was “— (represents zero events)” and the Dyspnea exertional [2] was “— (represents zero events)”. For the same compound, the Edema [2] was “— (represents zero events)”, the Epigastric discomfort [2] was 1 (2) number of patients (percent) and the Epistaxis [2] was “— (represents zero events)”. The Erysipelas [2] was 1 number of patients (percent) and 1 (2) number of patients (percent), the Fatigue [2] was 1 (2) number of patients (percent) and the Frequent bowel movements [2] was 1 (2) number of patients (percent). The Headache [2] was “— (represents zero events)”, the Heavy menstrual bleeding [2] was “— (represents zero events)” and the Hypoesthesia [2] was 1 (2) number of patients (percent). For the same compound, the Hypophosphatemia [2] was “— (represents zero events)”, the I lot flush [2] was 1 (2) number of patients (percent) and the Ilypokalemia [2] was “— (represents zero events)”. For the same compound, the “Increased white blood cell count” value [2] was 1 (2) number of patients (percent), the Maculo-papular rash [2] was “— (represents zero events)” and the Malaise [2] was “— (represents zero events)”. The Micturition urgency [2] was “— (represents zero events)”, the Muscle spasms [2] was “— (represents zero events)” and the Myalgia [2] was “— (represents zero events)”. The Nasal congestion [2] was “— (represents zero events)”, the Nasopharyngitis [2] was “— (represents zero events)” and the Nausea [2] was 2 (3) number of patients (percent). For the same compound, the Peripheral swelling [2] was “— (represents zero events)”, the Petechiae [2] was “— (represents zero events)” and the Pruritus [2] was 1 (2) number of patients (percent). For the same compound, the Purpura [2] was “— (represents zero events)”, the Rash [2] was “— (represents zero events)” and the Thrombocytopena [2] was “— (represents zero events)”. The Upper abdominal pain [2] was 1 (2) number of patients (percent), the “Upper respiratory tract infection” value [2] was “— (represents zero events)” and the Urinary tract infection [2] was “— (represents zero events)”. For the same compound, the Vomiting [2] was 1 (2) number of patients (percent), the Abdominal discomfort [3] was “— (represents zero events)” and the Abdominal distension [3] was “— (represents zero events)”. The Abdominal pain [3] was “— (represents zero events)”, the Abnormal dreams [3] was “— (represents zero events)” and the Akathisia [3] was “— (represents zero events)”. For the same compound, the Alopecia [3] was “— (represents zero events)”, the Anemia [3] was “— (represents zero events)” and the Arthralgia [3] was “— (represents zero events)”. The Arthropod bite [3] was “— (represents zero events)”, the Back pain [3] was “— (represents zero events)” and the Conjunctival hemorrhage [3] was “— (represents zero events)”. For the same compound, the Contusion [3] was “— (represents zero events)”, the Costochondritis [3] was “— (represents zero events)” and the Cough [3] was “— (represents zero events)”. For the same compound, the Decreased appetite [3] was “— (represents zero events)”, the Defecation urgency [3] was “— (represents zero events)” and the Diarrhea [3] was “— (represents zero events)”. For the same compound, the Dizziness [3] was “— (represents zero events)”, the Dyspepsia [3] was “— (represents zero events)” and the Dyspnea [3] was “— (represents zero events)”. The Dyspnea exertional [3] was “— (represents zero events)”, the Edema [3] was “— (represents zero events)” and the Epigastric discomfort [3] was “— (represents zero events)”. The Epistaxis [3] was “— (represents zero events)”, the Erysipelas [3] was “— (represents zero events)” and the Fatigue [3] was “— (represents zero events)”. The Frequent bowel movements [3] was “— (represents zero events)”, the Headache [3] was “— (represents zero events)” and the Heavy menstrual bleeding [3] was “— (represents zero events)”. For the same compound, the Hypoesthesia [3] was “— (represents zero events)”, the Hypophosphatemia [3] was “— (represents zero events)” and the I lot flush [3] was “— (represents zero events)”. For the same compound, the Ilypokalemia [3] was “— (represents zero events)”, the “Increased white blood cell count” value [3] was “— (represents zero events)” and the Maculo-papular rash [3] was “— (represents zero events)”. The Malaise [3] was “— (represents zero events)”, the Micturition urgency [3] was “— (represents zero events)” and the Muscle spasms [3] was “— (represents zero events)”. The Myalgia [3] was “— (represents zero events)”, the Nasal congestion [3] was “— (represents zero events)” and the Nasopharyngitis [3] was “— (represents zero events)”. For the same compound, the Nausea [3] was “— (represents zero events)”, the Peripheral swelling [3] was “— (represents zero events)” and the Petechiae [3] was “— (represents zero events)”. The Pruritus [3] was “— (represents zero events)”, the Purpura [3] was “— (represents zero events)” and the Rash [3] was “— (represents zero events)”. For the same compound, the Thrombocytopena [3] was “— (represents zero events)”, the Upper abdominal pain [3] was “— (represents zero events)” and the “Upper respiratory tract infection” value [3] was “— (represents zero events)”. The Urinary tract infection [3] was “— (represents zero events)”, the Vomiting [3] was “— (represents zero events)” and the “grade 1 candida infection” value (unrelated to treatment) was “‡Other infections and infestations not listed in the table that were unrelated to treatment and that occurred in a single patient each included grade 1 candida infection, fungal skin infection, and osteomyelitis; and grade 2 infected skin ulcer and oral herpes”. It also gave a patient deaths (unrelated to treatment, 400 mg bid discontinued day 8, died 135 days after initiating) of 1 patient.
